The source made the active and inactive calls. The rule behind the calls is not given here.
Test system: PC-12
Experiment: Cytoprotective activity against hydrogen peroxide-induced cell damage in rat PC12 cells assessed as cell viability treated 2 hrs before hydrogen peroxide challenge by MTT assay
Format: functional, cell-based

Structure (SMILES) | Activity
COC1O[C@@]2(C)CC(=O)[C@@H]3C[C@]2(O[C@@H]2O[C@H](CO)[C@@H](O)[C@H](O)[C@H]2O)[C@]13CO (some centres undefined) | Active
CC1=CC(=O)[C@@H]2C[C@@]1(O[C@@H]1O[C@H](CO)[C@@H](O)[C@H](O)[C@H]1O)OC=C2CO | Active
COCC1=CO[C@]2(O[C@@H]3O[C@H](CO)[C@@H](O)[C@H](O)[C@H]3O)C[C@H]1C(=O)C=C2C | Active
C=C1C(OC)O[C@]2(O[C@@H]3O[C@H](CO)[C@@H](O)[C@H](O)[C@H]3O)C[C@H]1C(=O)C=C2C (some centres undefined) | Active

From ChEMBL document CHEMBL1152920, “Monoterpene glucosides from Paeonia lactiflora” (J Nat Prod, 2009)
